The supplement of paper PMC10307832

Assays:
Experiment in all cases: relative viability (nuclei count vs DMSO), 5 days (fraction); higher = more cells survive
AZD6482 + OSI-027 = compound: Cc1cc([C@@H](C)Nc2ccccc2C(=O)O)c2nc(N3CCOCC3)cc(=O)n2c1 [AZD6482] + COc1cccc2cc(-c3nc([C@H]4CC[C@H](C(=O)O)CC4)n4ncnc(N)c34)[nH]c12 [OSI-027] (partner 0.5 µM)
In short: (§1)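 A single step with final 0.05% Triton X-100, 1% formaldehyde and 1 ug/ml Hoechst fixed the cells and stained nuclei 5 days after treatment. Lung cancer cell lines in 1536-well plates had been treated by pin tool the day after seeding with one drug alone or a fixed anchor-drug dose plus five library-drug doses (not always all listed) in √10 steps, and nuclei were counted on 4× images. Relative viability is the ratio of nuclei in treated wells to nuclei in vehicle wells, taken as the median of duplicate plates.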

AZD6482 + Olaparib = compound: Cc1cc([C@@H](C)Nc2ccccc2C(=O)O)c2nc(N3CCOCC3)cc(=O)n2c1 [AZD6482] + O=C(c1cc(Cc2n[nH]c(=O)c3ccccc23)ccc1F)N1CCN(C(=O)C2CC2)CC1 [Olaparib] (partner 8 µM)
In short: as §1

AZD6482 + Decitabine = compound: Cc1cc([C@@H](C)Nc2ccccc2C(=O)O)c2nc(N3CCOCC3)cc(=O)n2c1 [AZD6482] + Nc1ncn([C@H]2C[C@H](O)[C@@H](CO)O2)c(=O)n1 [Decitabine] (partner 2 µM)
In short: as §1

[1] = compound: COc1cc2nc(N3CCCN(C)CC3)nc(NC3CCN(Cc4ccccc4)CC3)c2cc1OC + Nc1nc2[nH]cc(CCc3ccc(C(=O)N[C@@H](CCC(=O)O)C(=O)O)cc3)c2c(=O)[nH]1 [Pemetrexed] (partner 0.2 µM)
In short: as §1

Cell Line | relative viability (AZD6482 + OSI-027; first compound 0.08 µM) | relative viability (AZD6482 + OSI-027; first compound 0.253 µM) | relative viability (AZD6482 + OSI-027; first compound 0.8 µM) | relative viability (AZD6482 + OSI-027; first compound 2.53 µM) | relative viability (AZD6482 + OSI-027; first compound 8 µM) | relative viability (AZD6482 + Olaparib; first compound 0.08 µM) | relative viability (AZD6482 + Olaparib; first compound 0.253 µM) | relative viability (AZD6482 + Olaparib; first compound 0.8 µM) | relative viability (AZD6482 + Olaparib; first compound 2.53 µM) | relative viability (AZD6482 + Olaparib; first compound 8 µM) | relative viability (AZD6482 + Decitabine; first compound 0.08 µM) | relative viability (AZD6482 + Decitabine; first compound 0.253 µM) | relative viability (AZD6482 + Decitabine; first compound 0.8 µM) | relative viability (AZD6482 + Decitabine; first compound 2.53 µM) | relative viability (AZD6482 + Decitabine; first compound 8 µM) | relative viability ([1]; first compound 0.2 µM) | relative viability ([1]; first compound 0.6325 µM) | relative viability ([1]; first compound 2 µM) | relative viability ([1]; first compound 6.325 µM)
COR-L23 | 0.552 | 0.791 | 0.911 | 0.611 | 0.751 | 0.272 | 0.414 | 0.364 | 0.195 | 0.34 | 0.418 | 0.386 | 0.456 | 0.396 | 0.366 | 0.205 | 0.21 | 0.208 | 0.199
ABC-1 | 0.51 | 0.478 | 0.358 | 0.401 | 0.406 | 0.602 | 0.464 | 0.881 | 0.801 | 0.52 | 0.902 | 1.14 | 0.985 | 1.26 | 0.947 |  |  |  | 
NCI-H522 | 0.599 | 0.784 | 0.635 | 0.688 | 0.54 | 0.573 | 0.697 | 0.634 | 0.596 | 0.577 | 0.627 | 0.6 | 0.586 | 0.585 | 0.755 | 1.05 | 0.924 | 1.09 | 0.78
NCI-H838 | 0.334 | 0.378 | 0.355 | 0.199 | 0.27 | 0.631 | 0.712 | 0.651 | 0.433 | 0.395 | 0.436 | 0.442 | 0.433 | 0.428 | 0.364 | 0.259 | 0.263 | 0.293 | 0.243
SW 900 | 0.45 | 0.471 | 0.433 |  | 0.492 | 0.678 | 0.665 | 0.661 | 0.623 | 0.616 | 0.412 | 0.419 | 0.45 | 0.418 | 0.434 | 0.484 | 0.504 | 0.491 | 0.505
A549 |  |  |  |  |  | 0.26 | 0.33 | 0.37 |  | 0.315 | 0.27 | 0.12 | 0.209 |  | 0.347 |  |  |  | 
A-427 | 0.458 | 0.348 | 0.52 |  | 0.423 | 0.5 | 0.718 | 0.739 | 0.514 | 0.66 | 0.479 | 0.53 | 0.547 | 0.512 | 0.483 | 0.899 | 1 | 1.03 | 1.03
NCI-H1792 | 0.662 | 0.677 | 0.73 | 0.511 | 0.406 | 0.151 | 0.345 | 0.365 | 0.234 | 0.138 | 0.519 | 0.479 | 0.549 | 0.356 | 0.476 | 0.74 | 0.826 | 0.985 | 0.752
LCLC-97TM1 | 0.482 | 0.399 | 0.384 | 0.255 | 0.312 | 0.403 | 0.285 | 0.413 |  | 0.244 | 0.218 | 0.204 | 0.196 |  | 0.213 | 0.194 | 0.156 | 0.189 | 0.199
NCI-H1703 |  |  |  |  |  | 0.342 | 0.456 | 0.258 | 0.133 | 0.167 |  |  |  |  |  |  |  |  | 
LCLC-103H | 0.414 | 0.452 | 0.492 | 0.273 | 0.31 | 0.677 | 0.745 | 0.648 | 0.543 | 0.569 | 0.597 | 0.682 | 0.677 | 0.716 | 0.519 | 0.495 | 0.455 | 0.443 | 0.47
PC-3 [JPC-3] | 0.654 | 0.732 | 0.723 | 0.502 | 0.633 | 1.02 | 1.11 | 1.08 | 0.801 | 1.15 | 0.775 | 0.827 | 0.773 | 0.714 | 0.751 | 0.972 | 1.15 | 1.11 | 1.01
BEN | 0.314 | 0.302 | 0.273 | 0.276 | 0.299 | 0.915 | 0.934 | 0.946 | 0.875 | 0.816 | 0.621 | 0.533 | 0.767 | 0.509 | 0.581 | 0.827 | 0.943 | 1.01 | 0.716
NCI-H1666 | 0.684 | 0.765 | 0.918 | 0.66 | 0.8 | 0.731 | 0.722 | 0.777 | 0.712 | 0.773 | 0.72 | 0.687 | 0.715 | 0.645 | 0.642 | 0.885 | 0.785 | 0.766 | 0.872
LC-2-ad | 0.734 | 0.757 | 0.807 | 0.581 | 0.565 | 0.727 | 0.735 | 0.795 | 0.64 | 0.803 | 0.799 | 0.71 | 0.811 | 0.661 | 0.635 | 0.301 | 0.27 | 0.268 | 0.264
Calu-6 |  |  |  |  |  | 0.516 | 0.493 | 0.533 | 0.527 | 0.543 |  |  |  |  |  |  |  |  | 
EBC-1 |  |  |  |  |  | 0.533 | 0.675 | 0.637 | 0.467 | 0.301 |  |  |  |  |  |  |  |  | 
NCI-H1299 |  |  |  |  |  | 0.995 | 1.02 | 1.07 | 0.992 | 0.934 |  |  |  |  |  |  |  |  | 
NCI-H2228 |  | 0.316 | 0.548 | 0.358 | 0.445 | 0.494 | 0.546 | 0.569 | 0.466 | 0.569 |  |  |  |  |  | 0.32 | 0.347 | 0.336 | 0.26
IA-LM |  |  |  |  |  | 0.982 | 0.995 | 1.15 |  | 0.759 |  |  |  |  |  |  |  |  | 
NCI-H727 | 0.457 | 0.521 | 0.511 | 0.43 | 0.518 | 0.681 | 0.666 | 0.66 |  | 0.669 | 0.951 | 0.85 | 1.02 |  | 0.798 |  |  |  | 
CAL-12T | 0.706 | 0.715 | 0.519 | 0.348 | 0.342 | 0.746 | 0.702 | 0.712 | 0.595 | 0.543 |  |  |  |  |  | 1.23 | 1.01 | 1.19 | 1.04
